Results: patent US8324406B2, “Antitumoral dihydropyran-2-one compounds” (priority 2006, dated 2012)
pIC50: −log10 of the molar value. Converted amounts (≈) assume the structure as drawn. Read-outs that look alike come from different tables or passages of the source.

What was measured:
breast cancer carcinoma = conditions: cited from earlier work
HeLa cells = assay: Anti-mitotic assay (anti-MPM2 immunoassay); type: cell-based; conditions: Homo sapiens, 18 hours incubation, read-out: IC50 (50% mitotic arrest)
Experimental: Anti-Mitotic Assay Protocol
The mitotic ratio of the cell cultures (percentage of cells arrested in mitosis) was estimated using a specific 96-well microplate immunoassay that quantitatively detects a specific mitotic marker. HeLa cells (h-cervix carcinoma, ATCC# CCL-2) were incubated for 18 hours in the presence or absence of the samples being tested. Afterwards, cells were washed with PBS and lysed on ice in 75 μL of freshly prepared lysis buffer (1 mM EGTA (pH 7.5), 0.5 mM PMSF and 1 mM NaVO3) for 30 min. An aliquot of the cell extract (60 μL) was transferred to a high-binding surface ELISA plate and dried in a speed-vac for 2 h at room temperature. Plates were then blocked in 100 μL. PBS-1% BSA for 30 min at 30° C. and sequentially incubated with anti-MPM2 primary mouse monoclonal antibody (Upstate Biotechnology, cat #05-368) for 18 h at 4° C. and appropriate peroxidase-conjugated secondary antibody for 1 h at 30° C. After intensive washing in 0.02% Tween-20, peroxidase reaction were performed using 30 μL of TMB (3,3′,5,5′-tetramethyl-benzidine) for 30 min at 30° C. Reaction was stopped by adding 30 μL of a 4% H2SO4 solution. Assay was quantified by measuring the O.D. at 450 nm in a microplate spectrophotometer. Results were expressed as IC50, sample concentration that produces 50% mitotic arrest in treated cell cultures, as compared to control, untreated cultures.

MDA-MB-231 = assay: cells; type: cell-based; conditions: Homo sapiens; for IC (TGI): read-out: TGI
Excerpt: (§1) The aim of this assay is to evaluate the in vitro cytostatic (ability to delay or arrest tumor cell growth) or cytotoxic (ability to kill tumor cells) activity of the samples being tested.
(§2) Evaluation of Cytotoxic Activity Using the SBR Colorimetric Assay
(§3) A colorimetric type of assay, using sulforhodamine B (SRB) reaction has been adapted for a quantitative measurement of cell growth and viability (following the technique described by Skehan P et al. J. Natl. Cancer Inst. 1990, 82, 1107-1112).
(§4) This form of assay employs SBS-standard 96-well cell culture microplates (Faircloth et al. Methods in cell science, 1988, 11(4), 201-205; Mosmann et al, Journal of. Immunological. Methods, 1983, 65(1-2), 55-63). All the cell lines used in this study, derived from different types of human cancer, were obtained from the American Type Culture Collection (ATCC).
(§5) Cells were maintained in Dulbecco's Modified Eagle Medium (DMEM) supplemented with 10% Fetal Bovine Serum (FBS), 2 mM L-glutamine, 100 U/mL penicillin and 100 U/mL streptomycin at 37° C., 5% CO2 and 98% humidity. For the experiments, cells were harvested from subconfluent cultures using trypsinization and resuspended in fresh medium before counting and plating.
(§6) Cells were seeded in 96 well microtiter plates at 5×10^3 cells per well in aliquots of 150 μL, and allowed to attach to the plate surface for 18 hours in drug free medium. One control (untreated) plate of each cell line was fixed (as described below) and used for time zero reference value. Afterwards, test samples were added to the cultures in ten serial dilutions, in aliquots of 50 μL, ranging from 10 to 0.00262 μg/mL. After 48 hours exposure, the antitumor effect was estimated by the SRB method: Briefly, cells were washed twice with PBS, fixed for 15 min in 1% glutaraldehyde solution, rinsed twice in PBS, and stained in 0.4% SRB solution for 30 min at room temperature. Cells were then rinsed several times with 1% acetic acid solution and air-dried. SRB was then extracted in 10 mM trizma base solution and the absorbance measured in an automated spectrophotometric plate reader at 490 nm. Cell survival was expressed as percentage of control cell growth. The final effect of the sample being tested was estimated by applying the NCI algorithm (Boyd M R and Paull K D. Drug Dev. Res. 1995, 34, 91-104).
(§7) Using the mean±SD of triplicate cultures, a dose-response curve was automatically generated using nonlinear regression analysis. Three reference parameters were calculated (NCI algorithm) by automatic interpolation: GI50=concentration that produces 50% growth inhibition; TGI=total growth inhibition (cytostatic effect) and LC50=concentration that produces 50% net cell killing (cytotoxic effect).

HT29 = assay: cells; type: cell-based; conditions: Homo sapiens; for IC (TGI): read-out: TGI
Excerpt: as §1, §2, §3, §4, §5, §6, §7

A549 = assay: cells; type: cell-based; conditions: Homo sapiens; for IC (TGI): read-out: TGI
Excerpt: as §1, §2, §3, §4, §5, §6, §7

[1] = system: L929 mouse fibroblast cell culture; conditions: cited from earlier work
Saccharomyces cerevisiae = conditions: fungus Saccharomyces cerevisiae; cited from earlier work
[2] = MDA-MB-231, 48 h, read-out: LC50
[3] = MDA-MB-231, 48 hours exposure, SRB, 50% net cell killing (cytotoxic effect), read-out: LC50 (the source's name)
[4] = MDA-MB-231, 48 hours exposure, SRB, concentration that produces 50% growth inhibition, read-out: GI50
[5] = MDA-MB-231, 48 hours exposure, SRB, total growth inhibition (cytostatic effect)
[6] = HT-29, HT29, 48 hours exposure, SRB, 50% net cell killing (cytotoxic effect), read-out: LC50 (the source's name)
[7] = HT-29, HT29, 48 hours exposure, SRB, concentration that produces 50% growth inhibition, read-out: GI50
[8] = HT-29, HT29, 48 hours exposure, SRB, total growth inhibition (cytostatic effect)
[9] = A549, 48 hours exposure, SRB, 50% net cell killing (cytotoxic effect), read-out: LC50 (the source's name)
[10] = A549, 48 hours exposure, SRB, concentration that produces 50% growth inhibition, read-out: GI50
[11] = A549, 48 hours exposure, SRB, total growth inhibition (cytostatic effect)

SMILES	GI50 (MDA-MB-231; MDA-MB-231, 48 h)	CC50 (MDA-MB-231; [2])	IC (TGI) (MDA-MB-231; MDA-MB-231, 48 h)	GI50 (HT29; HT-29, 48 h)	CC50 (HT29; HT-29, 48 h, read-out: LC50)	IC (TGI) (HT29; HT-29, 48 h)	GI50 (A549; A549, 48 h)	CC50 (A549; A549, 48 h, read-out: LC50)	IC (TGI) (A549; A549, 48 h)	CC50 (MDA-MB-231; [3])	GI50 (MDA-MB-231; [4])	IC (TGI) (MDA-MB-231; [5])	CC50 (HT29; [6])	GI50 (HT29; [7])	IC (TGI) (HT29; [8])	CC50 (A549; [9])	GI50 (A549; [10])	IC (TGI) (A549; [11])	also measured
C=C/C=C\[C@H](C)[C@H](OC(N)=O)[C@@H](C)[C@H](O)[C@@H](C)C/C(C)=C\[C@H](C)[C@@H](O)[C@@H](C)/C=C\[C@@H](O)CC1OC(=O)[C@H](C)[C@@H](O)[C@H]1C (single isomer, unassigned; (+)) [(+)-discodermolide]	–	–	–	–	–	–	–	–	–	–	–	–	–	–	–	–	–	–	pIC50 (breast cancer carcinoma): 8.62
COC1=CC[C@@H]([C@@H](C)/C=C(C)/C=C\C=C/C(=O)N[C@H](C(=O)N/C=C\C[C@H](C/C=C(\C)Cl)OC(N)=O)C(C)(C)C)OC1=O [Compound 1]	0.445 nM	2.8 nM	0.99 nM	0.462 nM	0.99 nM	0.61 nM	0.379 nM	> 165 nM	0.00109 µM	–	–	–	–	–	–	–	–	–	pIC50 (HeLa cells): 7.58
COC1=CCC(C(C)/C=C(C)/C=C/C=C\C(=O)NC(C(=O)N/C=C\CC(C/C=C(\C)Cl)OC(N)=O)C(C)(C)C)OC1=O (stereo not drawn) [Compound 2]	9.85 nM	72 nM	21.5 nM	8.31 nM	17.2 nM	10.9 nM	8.63 nM	≥ 16500 nM	0.0237 µM	–	–	–	–	–	–	–	–	–	pIC50 (HeLa cells): 7.58
COC1=CC[C@@H]([C@@H](C)/C=C(C)/C=C\C=C/C(=O)N[C@@H](Cc2ccccc2)C(=O)N/C=C\C[C@H](C/C=C(\C)Cl)OC(N)=O)OC1=O [Compound 31]	–	–	–	–	–	–	–	–	–	0.359 nM	0.075 nM	0.15 nM	> 15.6 nM	0.0406 nM	0.102 nM	> 15.6 nM	0.0922 nM	0.000219 µM	–
COC1=CC[C@@H]([C@@H](C)/C=C(C)/C=C/C=C/C(=O)N[C@H](C(=O)N/C=C\C[C@H](C/C=C(\C)Cl)O[Si](C)(C)C(C)(C)C)C(C)(C)C)OC1=O [Compound 37]	–	–	–	–	–	–	–	–	–	> 14800 nM	3100 nM	5610 nM	10000 nM	1920 nM	2950 nM	13900 nM	3540 nM	6.64 µM	–
COC1=CC[C@@H]([C@@H](C)/C=C(C)/C=C/C=C/C(=O)N[C@H](C(=O)N/C=C\C[C@@H](O)C/C=C(\C)Cl)C(C)(C)C)OC1=O [Compound 38]	–	–	–	–	–	–	–	–	–	> 178 nM	60.4 nM	> 178 nM	> 178 nM	39.1 nM	63.9 nM	> 178 nM	46.2 nM	0.0675 µM	–
COC1=CC[C@@H]([C@@H](C)/C=C(C)/C=C\C=C/C(=O)N[C@H](C(=O)N/C=C\C[C@@H](C/C=C(\C)Cl)OC(N)=O)C(C)(C)C)OC1=O [Compound (21S)-1]	1.65 nM	34.6 nM	5.77 nM	0.891 nM	23.1 nM	1.63 nM	2.14 nM	> 1650 nM	0.0429 µM	–	–	–	–	–	–	–	–	–	–
COC(=O)CNC(=O)CCC/C=C\NC(=O)/C=C(C)/C=C/[C@H](C)[C@H](OC)[C@H](C)[C@H](/C=C/c1ccccc1)OC [crocacin D]	–	–	–	–	–	–	–	–	–	–	–	–	–	–	–	–	–	–	IC50 (toxicity) [1]: 0.06 mg/L (≈ 0.111 µM); MIC (Saccharomyces cerevisiae): 1.4 ng/mL (≈ 0.00259 µM)
CC(=O)O[C@H]1C(=O)[C@@]2(C)[C@H]([C@H](OC(=O)c3ccccc3)[C@]3(O)C[C@H](OC(=O)[C@H](O)[C@@H](NC(=O)c4ccccc4)c4ccccc4)C(C)=C1C3(C)C)[C@]1(OC(C)=O)CO[C@@H]1C[C@@H]2O [paclitaxel]	–	–	–	–	–	–	–	–	–	–	–	–	–	–	–	–	–	–	pIC50 (breast cancer carcinoma): 8.68
